This series can be described thus: Toxicity in female rat assessed as effect on food consumption at 250 mg/kg/day, po administered once daily via gavage for 14 days. It is filed as organism-based. The note with it: in vivo, 336 h.

With `CC#C[C@]1(O)CC[C@H]2[C@@H]3CCC4=CC(=O)CC[C@]4(C)[C@H]3[C@@H](c3ccc(N(C)C)cc3)C[C@@]21C`, the Activity entry is recorded as “Non-Toxic”.

(Values after ChEMBL document CHEMBL4406804, “Discovery of a Potent Steroidal Glucocorticoid Receptor Antagonist with Enhanced Selectivity against the Progesterone and Androgen Receptors (OP-3633)” (J Med Chem, 2019).)
